In paper PMC9245008 (ACS chemical biology, 2022):
pIC50: −log10 of the molar value.

What was measured:
IRAK4 [1] = target: T1, IRAK4 (Homo sapiens, UniProt Q9NWZ3); assay: Potency of takinib analogues against IRAK4; assay type: biochemical; settings: IRAK4 IC50 over TAK1 IC50
T1 sequence (Q9NWZ3 1-460): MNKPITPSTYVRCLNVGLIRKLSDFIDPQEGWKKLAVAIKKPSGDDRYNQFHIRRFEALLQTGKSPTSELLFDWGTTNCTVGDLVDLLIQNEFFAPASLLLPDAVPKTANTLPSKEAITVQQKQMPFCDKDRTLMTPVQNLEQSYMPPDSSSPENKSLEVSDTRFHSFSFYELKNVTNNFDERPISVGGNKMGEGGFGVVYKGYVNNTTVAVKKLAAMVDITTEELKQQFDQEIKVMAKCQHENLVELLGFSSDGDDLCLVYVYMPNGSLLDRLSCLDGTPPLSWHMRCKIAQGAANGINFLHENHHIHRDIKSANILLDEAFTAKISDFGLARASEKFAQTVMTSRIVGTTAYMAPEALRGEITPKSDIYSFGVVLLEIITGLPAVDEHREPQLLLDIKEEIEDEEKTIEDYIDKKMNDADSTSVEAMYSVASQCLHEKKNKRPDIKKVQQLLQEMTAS

CIA mouse model = settings: 50 mg/kg IP; cited from earlier work
IRAK4 [2] = target: T1, IRAK4; settings: cited from earlier work
TAK1 = target: T2, TAK1 (Homo sapiens, UniProt O43318); assay: Potency of takinib analogues against TAK1; assay type: biochemical
T2 sequence (O43318 1-303 limits assumed): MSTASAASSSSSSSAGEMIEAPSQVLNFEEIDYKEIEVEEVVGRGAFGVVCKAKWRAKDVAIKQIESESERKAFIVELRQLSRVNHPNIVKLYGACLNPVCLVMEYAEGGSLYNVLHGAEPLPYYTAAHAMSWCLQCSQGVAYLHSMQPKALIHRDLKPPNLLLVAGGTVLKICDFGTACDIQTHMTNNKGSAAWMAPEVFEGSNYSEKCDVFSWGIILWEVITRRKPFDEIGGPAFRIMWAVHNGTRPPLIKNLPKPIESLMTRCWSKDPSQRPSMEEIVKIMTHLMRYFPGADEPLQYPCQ

- Ratio (IRAK4 [1]): 13
- pIC50 (TAK1): 8.05
Compound: CCCn1c(=NC(=O)c2cccc(C(N)=O)c2)[nH]c2ccccc21 [Takinib, N-(1-propyl-1,3-dihydro-2H-benzo[d]imidazol-2-ylidene)isophthalamide]
- reduction of mean clinical score (CIA mouse model): ~ 32%
- IRAK4 less potently inhibited than TAK1 (IRAK4 [2]): 13 fold
- pIC50 (IRAK4 [2]; read-out: IRAK4 IC50, two independent kinome wide screens): ~6.92
